Experimental data reported in ChEMBL document CHEMBL1201862, “PubChem BioAssay data set” (2004).
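Interpolation was linear, between the two tested concentrations surrounding the appropriate level; five concentrations were tested over 48 hours in 96-well plates. The concentration for 50% growth inhibition is given as GI50.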 Calls of active or inactive are those of the source. Rule as the data show it: active = GI50 up to about 1.1 µM and inactive = higher.

Legend:
Assay in all cases: growth of human tumour cells (NCI), 48 h
[1] = test system: SR
[2] = test system: SF-539
[3] = test system: HCC 2998
[4] = test system: KM12
[5] = test system: M14
[6] = test system: NCI-H226
[7] = test system: K562
[8] = test system: OVCAR-8
[9] = test system: UACC-62
[10] = test system: HOP-18
[11] = test system: XF498
[12] = test system: DMS-114
[13] = test system: IGROV-1
[14] = test system: DMS-273
[15] = test system: OVCAR-4
[16] = test system: ACHN
[17] = test system: LOX IMVI
[18] = test system: CAKI-1
[19] = test system: NCI/ADR-RES
[20] = test system: PC-3

| Structure (SMILES) | GI50 [1] | GI50 [2] | GI50 [3] | GI50 [4] | GI50 [5] | GI50 [6] | GI50 [7] | GI50 [8] | GI50 [9] | GI50 [10] | GI50 [11] | GI50 [12] | GI50 [13] | GI50 [14] | GI50 [15] | GI50 [16] | GI50 [17] | GI50 [18] | GI50 [19] | GI50 [20] |
| --- | --- | --- | --- | --- | --- | --- | --- | --- | --- | --- | --- | --- | --- | --- | --- | --- | --- | --- | --- | --- |
| COC(=O)C(=O)C(C(=O)Nc1cccc(C)c1C)C1Sc2ccccc2NC1=O (stereo unspecified) | 13.7 µM (inactive) | 12 µM (inactive) | 15.6 µM (inactive) | 7.69 µM (inactive) | 8.55 µM (inactive) | 16.7 µM (inactive) | 9.79 µM (inactive) | 19.5 µM (inactive) | 8.09 µM (inactive) | > 25 µM (inactive) | > 25 µM (inactive) | 5.83 µM (inactive) | 16.8 µM (inactive) | 11.8 µM (inactive) | > 25 µM (inactive) | > 25 µM (inactive) | 13.9 µM (inactive) | > 25 µM (inactive) | – | – |
| CCC(=O)c1c(NOC2OCC(OC(C)=O)C(OC(C)=O)C2OC(C)=O)nc(OC)n(C)c1=O (stereo unspecified) | > 100 µM (inactive) | > 100 µM (inactive) | > 100 µM (inactive) | > 100 µM (inactive) | > 100 µM (inactive) | > 100 µM (inactive) | > 100 µM (inactive) | > 100 µM (inactive) | > 100 µM (inactive) | < 0.01 µM (active) | > 100 µM (inactive) | > 100 µM (inactive) | > 100 µM (inactive) | > 100 µM (inactive) | > 100 µM (inactive) | > 100 µM (inactive) | > 100 µM (inactive) | > 100 µM (inactive) | – | – |
| COc1cc(C2c3cc4c(cc3[C@@H](Nc3cccc([N+](=O)[O-])c3)C3COC(=O)[C@H]23)OCO4)cc(OC)c1O (stereo partly specified) | – | 1.43 µM (inactive) | 2.33 µM (inactive) | 3.01 µM (inactive) | – | 1.85 µM (inactive) | 2.94 µM (inactive) | 2.51 µM (inactive) | 2.52 µM (inactive) | 3.37 µM (inactive) | 3.13 µM (inactive) | 2.7 µM (inactive) | 6.65 µM (inactive) | 0.615 µM (active) | 20.2 µM (inactive) | – | 1.63 µM (inactive) | 1.03 µM (active) | 8.07 µM (inactive) | – |
| COc1ccc2cc3[n+](cc2c1OC)CCc1cc2c(cc1-3)OCO2 [BERBERINE CHLORIDE] | – | 35.3 µM (inactive) | – | 7.71 µM (inactive) | 22.8 µM (inactive) | – | 16.6 µM (inactive) | 12.7 µM (inactive) | 29.9 µM (inactive) | 106 µM (inactive) | 7.82 µM (inactive) | 4.23 µM (inactive) | 40.6 µM (inactive) | 10.3 µM (inactive) | – | > 100 µM (inactive) | 77.1 µM (inactive) | – | – | 26.9 µM (inactive) |
